Patent US11180452B2, “Methods and compositions for selectively inhibiting pathogenic microbes” (priority 2019, dated 2021)
Converted amounts (≈) assume the structure as drawn. “And” between values parts separate entries of the source, which are not always exact repeats. Identical values can stand only once. Like-named read-outs stand apart in the source and are kept apart here.

Assays:
NoSpin HepaRG cells = assay: HepaRG cytotoxicity, MTT assay EC50; format: cell-based, human; conditions: Homo sapiens, HepaRG; cytotoxicity EC50, Table 9
Description: Additionally, the antimicrobial compounds were analyzed for cytotoxicity. […] We utilized the standard MTT assay (Promega CellTiter 96) and GraphPad Prism 7 software to determine EC50 values for each analogue. Briefly, 20,000 HepG2 cells in 200 μl of the ATCC recommended media were seeded in each well of a 96-well plate with a moisture barrier created in the outermost wells. The cells were allowed to attach overnight at 37° C., and then observed under phase contrast microscopy for proper morphological characteristics. […] Once incubations were complete, the spectrophotometric absorbance of the samples was measured at a wavelength of 595 nm. […] For the HepaRG assay, NoSpin HepaRG™ cells (Lonza, cat #NSHPRG) were thawed and plated with 20,000 cells per well. They were allowed to attach for 4 h (optimal DME profile per Lonza's testing) before dosing following the identical protocol as above.

Bacillus subtilis = Bacillus subtilis MIC / MBC; format: cell-based; conditions: for MBC: Bacillus subtilis NRRL: B-571, minimum bactericidal concentration; for MIC: Bacillus subtilis
Bacillus thuringiensis = format: cell-based; conditions: Bacillus thuringiensis Berliner ATCC: 10792; for MIC: Bacillus thuringiensis, read-out: MIC
[1] = tested on: Burkholderia thailandensis Brett et al ATCC: 700388; assay: microbe, parasite or virus in culture; format: cell-based
Candida glabrata = Candida glabrata MIC / MFC; format: cell-based; conditions: Nakaseomyces glabratus, Candida glabrata #584 (Table 2); for MIC: read-out: MIC
[2] = tested on: Francisella tularensis subsp. Holarctica Strain LVSR NR-597; assay: microbe, parasite or virus in culture; format: cell-based
N. gonorrhoeae = N. gonorrhoeae MIC; format: cell-based; conditions: Neisseria gonorrhoeae
[3] = tested on: Francisella tularensis strains; assay: microbe, parasite or virus in culture; format: cell-based
[4] = Toxicity in mice, body weight over 7 days; format: in vivo, Balb/c mice; conditions: for Animal body weight (kg) Day 0 / Animal body weight (kg) Day 1 / Animal body weight (kg) Day 2 / Animal body weight (kg) Day 3 / Animal body weight (kg) Day 4 / Animal body weight (kg) Day 5 / Animal body weight (kg) Day 6 / Animal body weight (kg) Day 7: mice, IP; for Animal body weight (kg) Day 0: Day 0, individual animals; for Animal body weight (kg) Day 1: Day 1, individual animals; for Animal body weight (kg) Day 2: Day 2, individual animals; for Animal body weight (kg) Day 3: Day 3, individual animals; for Animal body weight (kg) Day 4: Day 4, individual animals; for Animal body weight (kg) Day 5: Day 5, individual animals; for Animal body weight (kg) Day 6: Day 6, individual animals; for Animal body weight (kg) Day 7: Day 7, individual animals
From the text: The vehicle is 40% PEG300 solution in 0.9% NaCl. […] Thus, the compounds are useful for in vivo antimicrobial administration.

Trichophyton rubrum = assay: MIC against Trichophyton rubrum; format: cell-based; conditions: Trichophyton rubrum Castellani Sabouraud ATCC: 28188; read-out: MIC
[5] = Bacillus subtilis (Ehrenberg 1835) Cohn 1872 NRRL: B-571, read-out: MIC

Structure (SMILES): Oc1ccccc1Sc1c[nH]c2ccc(Br)cc12 [Compound 174AI, 2-((5-bromo-1H-indol-3-yl)thio)phenol]
- EC50 (NoSpin HepaRG cells): 27.4 µg/mL (≈ 85.6 µM)
- MBC (Bacillus subtilis): 6.25 µg/mL (≈ 19.5 µM)
- MIC (Bacillus subtilis; [5]): 0.78 µg/mL (≈ 2.44 µM)
- MIC (Bacillus subtilis; strain B-571 (Table 4), read-out: Bacillus subtilis MIC): 0.78 µg/mL (≈ 2.44 µM)
- MIC (Bacillus subtilis; strain B-1985, read-out: Bacillus subtilis MIC): 0.78 µg/mL (≈ 2.44 µM)
- MIC (Bacillus subtilis; strain B-3665, read-out: Bacillus subtilis MIC): 6.25 µg/mL (≈ 19.5 µM)
- MIC (Bacillus subtilis; strain B-14322, read-out: Bacillus subtilis MIC): 3.13 µg/mL (≈ 9.77 µM)
- MIC (Bacillus subtilis; strain B-41090, read-out: Bacillus subtilis MIC): 6.25 µg/mL (≈ 19.5 µM)
- MIC (Bacillus subtilis; strain B-41581, read-out: Bacillus subtilis MIC): 6.25 µg/mL (≈ 19.5 µM)
- MIC (Bacillus subtilis; strain BD-594, read-out: Bacillus subtilis MIC): 6.25 µg/mL (≈ 19.5 µM)
- MBC (Bacillus thuringiensis): > 50 µg/mL
- MIC (Bacillus thuringiensis): 0.78 µg/mL (≈ 2.44 µM)
- MBC [1]: > 50 µg/mL
- MIC [1]: 12.5 µg/mL (≈ 39 µM)
- MFC (Candida glabrata; minimum fungicidal concentration, read-out: MFC): 25 µg/mL (≈ 78.1 µM)
- MIC (Candida glabrata): 6.25 µg/mL (≈ 19.5 µM)
- MIC [2]: 2 µg/mL (≈ 6.25 µM)
- MIC (N. gonorrhoeae; strain #167): < 0.39 µg/mL
- MIC50 [3]: 3 µg/mL (≈ 9.37 µM)
- MIC ([3]; read-out: F. tularensis BSL-3 MIC, Strain 100): 6 µg/mL (≈ 18.7 µM)
- MIC ([3]; read-out: F. tularensis BSL-3 MIC, strain HN-63): 2 µg/mL (≈ 6.25 µM)
- MIC ([3]; read-out: F. tularensis BSL-3 MIC, strain LVS): 4 µg/mL (≈ 12.5 µM)
- MIC ([3]; read-out: F. tularensis BSL-3 MIC, strain MA00-2987): 1.67 µg/mL (≈ 5.22 µM)
- MIC ([3]; read-out: F. tularensis BSL-3 MIC, strain MO #1): 1.33 µg/mL (≈ 4.15 µM)
- MIC ([3]; read-out: F. tularensis BSL-3 MIC, strain MO #2): 1.33 µg/mL (≈ 4.15 µM)
- MIC ([3]; read-out: F. tularensis BSL-3 MIC, strain MO #3): 2 µg/mL (≈ 6.25 µM)
- MIC ([3]; read-out: F. tularensis BSL-3 MIC, strain OR-96): 4 µg/mL (≈ 12.5 µM)
- MIC ([3]; read-out: F. tularensis BSL-3 MIC, strain SCHU S4): 4 µg/mL (≈ 12.5 µM)
- MIC ([3]; read-out: F. tularensis BSL-3 MIC, strain WY-96): 6 µg/mL (≈ 18.7 µM)
- MIC ([3]; read-out: MAX, highest MIC over the Francisella tularensis strains): 6 µg/mL (≈ 18.7 µM)
- MIC ([3]; read-out: MIN, lowest MIC over the Francisella tularensis strains): 1.33 µg/mL (≈ 4.15 µM)
- toxicity in mice by body weight ([4]; 6-week-old Balb/c mice, body weight over 7 days, vehicle 40% PEG300 in 0.9% NaCl): did not have significant toxicity
- Animal body weight (kg) Day 0 ([4]; 0.1 mg/kg, 0.1 mg/kg): 0.023 kg (2×) and 0.022 kg
- Animal body weight (kg) Day 1 ([4]; 0.1 mg/kg, 0.1 mg/kg): 0.022 kg (2×) and 0.021 kg
- Animal body weight (kg) Day 2 ([4]; 0.1 mg/kg, 0.1 mg/kg): 0.023 kg and 0.022 kg and 0.021 kg
- Animal body weight (kg) Day 3 ([4]; 0.1 mg/kg, 0.1 mg/kg): 0.024 kg and 0.022 kg (2×)
- Animal body weight (kg) Day 4 ([4]; 0.1 mg/kg, 0.1 mg/kg): 0.024 kg and 0.022 kg (2×)
- Animal body weight (kg) Day 5 ([4]; 0.1 mg/kg, 0.1 mg/kg): 0.024 kg and 0.022 kg (2×)
- Animal body weight (kg) Day 6 ([4]; 0.1 mg/kg, 0.1 mg/kg): 0.024 kg and 0.022 kg (2×)
- Animal body weight (kg) Day 7 ([4]; 0.1 mg/kg, 0.1 mg/kg): 0.023 kg (2×) and 0.022 kg
- Animal body weight (kg) Day 0 ([4]; 1 mg/kg, 1 mg/kg): 0.022 kg and 0.024 kg and 0.026 kg
- Animal body weight (kg) Day 1 ([4]; 1 mg/kg, 1 mg/kg): 0.023 kg and 0.024 kg and 0.026 kg
- Animal body weight (kg) Day 2 ([4]; 1 mg/kg, 1 mg/kg): 0.023 kg and 0.025 kg and 0.026 kg
- Animal body weight (kg) Day 3 ([4]; 1 mg/kg, 1 mg/kg): 0.023 kg and 0.025 kg and 0.027 kg
- Animal body weight (kg) Day 4 ([4]; 1 mg/kg, 1 mg/kg): 0.022 kg and 0.025 kg and 0.026 kg
- Animal body weight (kg) Day 5 ([4]; 1 mg/kg, 1 mg/kg): 0.022 kg and 0.025 kg and 0.026 kg
- Animal body weight (kg) Day 6 ([4]; 1 mg/kg, 1 mg/kg): 0.022 kg and 0.024 kg and 0.026 kg
- Animal body weight (kg) Day 7 ([4]; 1 mg/kg, 1 mg/kg): 0.022 kg and 0.024 kg and 0.026 kg
- Animal body weight (kg) Day 0 ([4]; 10 mg/kg, 10 mg/kg): 0.022 kg and 0.026 kg and 0.024 kg
- Animal body weight (kg) Day 1 ([4]; 10 mg/kg, 10 mg/kg): 0.021 kg and 0.024 kg and 0.022 kg
- Animal body weight (kg) Day 2 ([4]; 10 mg/kg, 10 mg/kg): 0.022 kg and 0.024 kg and 0.023 kg
- Animal body weight (kg) Day 3 ([4]; 10 mg/kg, 10 mg/kg): 0.022 kg and 0.025 kg and 0.023 kg
- Animal body weight (kg) Day 4 ([4]; 10 mg/kg, 10 mg/kg): 0.022 kg and 0.026 kg and 0.024 kg
- Animal body weight (kg) Day 5 ([4]; 10 mg/kg, 10 mg/kg): 0.023 kg and 0.026 kg and 0.024 kg
- Animal body weight (kg) Day 6 ([4]; 10 mg/kg, 10 mg/kg): 0.022 kg and 0.026 kg and 0.024 kg
- Animal body weight (kg) Day 7 ([4]; 10 mg/kg, 10 mg/kg): 0.022 kg and 0.026 kg and 0.023 kg

Structure (SMILES): Fc1ccc2[nH]cc(Sc3ccc(Br)cc3)c2c1 [Compound 174E, 3-((4-bromophenyl)thio)-5-fluoro-1H-indole]
- MIC (Trichophyton rubrum): 2.01 µg/mL (≈ 6.24 µM)
- EC50 (NoSpin HepaRG cells): 23.6 µg/mL (≈ 73.2 µM)
- MBC (Bacillus subtilis): 3.13 µg/mL (≈ 9.71 µM)
- MIC (Bacillus subtilis; [5]): 1.56 µg/mL (≈ 4.84 µM)
- MBC (Bacillus thuringiensis): 3.13 µg/mL (≈ 9.71 µM)
- MIC (Bacillus thuringiensis): 1.56 µg/mL (≈ 4.84 µM)
- MIC [1]: > 50 µg/mL
- MIC (Candida glabrata): 3.13 µg/mL (≈ 9.71 µM)
- MIC [2]: 0.78 µg/mL (≈ 2.42 µM)
- MIC (N. gonorrhoeae; strain #167): < 0.39 µg/mL
- MIC (N. gonorrhoeae; strain #203): 1.56 µg/mL (≈ 4.84 µM)
- MIC (N. gonorrhoeae; strain #205): 1.56 µg/mL (≈ 4.84 µM)

Structure (SMILES): Oc1ccccc1Sc1c[nH]c2ccc(C(F)(F)F)cc12 [Compound 177A, 2-((5-(trifluoromethyl)-1H-indol-3-yl)thio)phenol]
- EC50 (NoSpin HepaRG cells): 24.1 µg/mL (≈ 77.9 µM)
- MIC (Bacillus subtilis; [5]): 0.39 µg/mL (≈ 1.26 µM)
- MBC [1]: > 50 µg/mL
- MIC [1]: > 50 µg/mL
- MIC (Candida glabrata): > 50 µg/mL
- MIC [2]: 0.78 µg/mL (≈ 2.52 µM)
- MIC (N. gonorrhoeae; strain #203): 3.13 µg/mL (≈ 10.1 µM)
- MIC (N. gonorrhoeae; strain #205): 3.13 µg/mL (≈ 10.1 µM)
